By IC50 is commonly meant the concentration at which inhibition is half-maximal.

For one assay, the target named is T1, Full-length, GST-tagged, human CaMKIIδ (Homo sapiens, UniProt Q13557).
T1 construct: Full-Length, Glutathione-S-Transferase(GST)-Tagged, Human CaMKIIδ was purchased from Carna Biosciences; purchased Carna Biosciences 02-111
T1 sequence (Q13557 1-478 isoform Q13557-12): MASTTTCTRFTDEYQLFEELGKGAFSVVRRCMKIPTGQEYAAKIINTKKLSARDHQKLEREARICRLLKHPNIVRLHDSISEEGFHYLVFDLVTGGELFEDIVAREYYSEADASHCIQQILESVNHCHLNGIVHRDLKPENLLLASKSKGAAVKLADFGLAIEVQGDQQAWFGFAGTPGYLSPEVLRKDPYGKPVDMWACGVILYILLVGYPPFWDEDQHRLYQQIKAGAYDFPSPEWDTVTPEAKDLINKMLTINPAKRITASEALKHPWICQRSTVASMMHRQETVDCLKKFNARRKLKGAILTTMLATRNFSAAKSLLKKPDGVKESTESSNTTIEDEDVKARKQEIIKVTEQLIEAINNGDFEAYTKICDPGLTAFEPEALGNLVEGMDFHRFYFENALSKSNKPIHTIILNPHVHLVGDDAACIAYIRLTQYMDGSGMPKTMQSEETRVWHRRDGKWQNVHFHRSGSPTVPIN
Put plainly: CaMKIIδ binding assay (TR-FRET with BODIPY-labeled probe ligand). Conditions: CaMKIIδ binding assay, results of Table 2. The method, boiled down: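 TR-FRET probe-displacement binding: 0.5 nM GST-CaMKIIδ with 10 μg/mL calmodulin, 1 mM CaCl2, 0.21 nM Tb-anti-GST Ab and 300 nM BODIPY probe in HEPES pH 7.6 buffer. Eight-point 4-fold dilutions, 1 hr at room temperature. IC50 from logistic fit; 100% inhibition defined by 3 μM parent compound.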
For orientation: In TR-FRET formats the signal depends on donor and acceptor labels being close together.
Compound `C[C@@H](Cn1cnnn1)Oc1cc(-c2cnc(Nc3cc(N4CCC(N5CCOCC5)CC4)ncc3OC(F)(F)F)nc2)ccc1Cl` [Example 537, (S)-5-(3-((1-(1H-tetrazol-1-yl)propan-2-yl)oxy)-4-chlorophenyl)-N-(2-(4-morpholinopiperidin-1-yl)-5-(trifluoromethoxy)pyridin-4-yl)pyrimidin-2-amine] had a half-maximal inhibitory concentration (IC50) of less than 10 nM.
Still for that read-out and setting: under `COc1cc2c(cc1Nc1ncc(-c3ccc(Cl)c(O[C@@H](C)Cn4cnnn4)c3)cn1)CCN(C1COC1)C2` [Example 468, (S)-N-(5-(3-((1-(1H-tetrazol-1-yl)propan-2-yl)oxy)-4-chlorophenyl)pyrimidin-2-yl)-7-methoxy-2-(oxetan-3-yl)-1,2,3,4-tetrahydroisoquinolin-6-amine] stands less than 10 nM.
The same measure, in the same setting: under `C[C@@H](Cn1cnnn1)Oc1cc(-c2cnc(Nc3cn(C4CCN(CC#N)CC4)nc3C(F)(F)F)nc2)ccc1Cl` [Example 536, (S)-2-(4-(4-((5-(3-((1-(1H-tetrazol-1-yl)propan-2-yl)oxy)-4-chlorophenyl)pyrimidin-2-yl)amino)-3-(trifluoromethyl)-1H-pyrazol-1-yl)piperidin-1-yl)acetonitrile] stands 10 to 100 nM; under `C[C@@H](Cn1cnnn1)Oc1cc(-c2cnc(Nc3cn(C4CCN(CCC(C)(C)C)CC4)nc3C(F)(F)F)nc2)ccc1Cl` [Example 547, (S)-5-(3-((1-(1H-tetrazol-1-yl)propan-2-yl)oxy)-4-chlorophenyl)-N-(1-(1-(3,3-dimethylbutyl)piperidin-4-yl)-3-(trifluoromethyl)-1H-pyrazol-4-yl)pyrimidin-2-amine], less than 10 nM; under `COc1cc2c(cc1Nc1ncc(-c3ccc(Cl)c(O[C@@H](C)Cn4cnnn4)c3)cn1)CCN(C=O)C2` [Example 471, (S)-6-((5-(3-((1-(1H-tetrazol-1-yl)propan-2-yl)oxy)-4-chlorophenyl)pyrimidin-2-yl)amino)-7-methoxy-3,4-dihydroisoquinoline-2(1H)-carbaldehyde], 10 to 100 nM.
Same read-out and setting: under `COc1cc(C2CCCN(C3COC3)C2)ccc1Nc1ncc(-c2ccc(C#N)c(O[C@@H](C)Cn3cnnn3)c2)cn1` (stereo partly drawn) [Example 493, 2-(((S)-1-(1H-tetrazol-1-yl)propan-2-yl)oxy)-4-(2-((2-methoxy-4-(1-(oxetan-3-yl)piperidin-3-yl)phenyl)amino)pyrimidin-5-yl)benzonitrile] stands less than 10 nM; under `C[C@@H](Cn1cnnn1)Oc1cc(-c2cnc(Nc3cn(C4CCN(Cc5cc[nH]n5)CC4)nc3C(F)(F)F)nc2)ccc1Cl` [Example 561, (S)-N-(1-(1-((1H-pyrazol-3-yl)methyl)piperidin-4-yl)-3-(trifluoromethyl)-1H-pyrazol-4-yl)-5-(3-((1-(1H-tetrazol-1-yl)propan-2-yl)oxy)-4-chlorophenyl)pyrimidin-2-amine], less than 10 nM.
`C[C@@H](Cn1cnnn1)Oc1cc(-c2cnc(Nc3cc(N4CCN(C5CCOCC5)CC4)ncc3OC(F)(F)F)nc2)ccc1C#N` [Example 542, (S)-2-((1-(1H-tetrazol-1-yl)propan-2-yl)oxy)-4-(2-((2-(4-(tetrahydro-2H-pyran-4-yl)piperazin-1-yl)-5-(trifluoromethoxy)pyridin-4-yl)amino)pyrimidin-5-yl)benzonitrile] gave an IC50 of less than 10 nM.
Still for that read-out and setting: under `COc1cc2c(cc1Nc1ncc(-c3ccc(Cl)c(O[C@@H](C)Cn4cnnn4)c3)cn1)N(C(=O)CN(C)C)CC2` [Example 497, (S)-1-(6-((5-(3-((1-(1H-tetrazol-1-yl)propan-2-yl)oxy)-4-chlorophenyl)pyrimidin-2-yl)amino)-5-methoxyindolin-1-yl)-2-(dimethylamino)ethan-1-one] stands less than 10 nM.
On the same count and under the same terms, in the case of `COc1cc2c(cc1Nc1ncc(-c3ccc(Cl)c(O[C@@H](C)Cn4cnnn4)c3)cn1)CCN(CC1COC1)C2` [Example 475, (S)-N-(5-(3-((1-(1H-tetrazol-1-yl)propan-2-yl)oxy)-4-chlorophenyl)pyrimidin-2-yl)-7-methoxy-2-(oxetan-3-ylmethyl)-1,2,3,4-tetrahydroisoquinolin-6-amine] it was less than 10 nM.

The same assay, now with this note: CaMKIIδ binding assay; activity class per Table 2.
In turn, `C[C@@H](Cn1cnnn1)Oc1cc(-c2cnc(Nc3cn(C4CC5(C4)CN(C4CCOCC4)C5)nc3OCC(F)(F)F)nc2)ccc1C(F)F` [Example 939, (S)-5-(3-((1-(1H-tetrazol-1-yl)propan-2-yl)oxy)-4-(difluoromethyl)phenyl)-N-(1-(2-(tetrahydro-2H-pyran-4-yl)-2-azaspiro[3.3]heptan-6-yl)-3-(2,2,2-trifluoroethoxy)-1H-pyrazol-4-yl)pyrimidin-2-amine] showed an IC50 of less than 10 nM.
Still for that read-out and setting: in the case of `C[C@@H](Cn1cnnn1)Oc1cc(-c2cnc(Nc3cn(C4CC5(C4)CN(Cc4ncccn4)C5)nc3OCC(F)(F)F)nc2)ccc1Cl` [Example 984, (S)-5-(3-((1-(1H-tetrazol-1-yl)propan-2-yl)oxy)-4-chlorophenyl)-N-(1-(2-(pyrimidin-2-ylmethyl)-2-azaspiro[3.3]heptan-6-yl)-3-(2,2,2-trifluoroethoxy)-1H-pyrazol-4-yl)pyrimidin-2-amine] it was less than 10 nM.
The same measure, in the same setting: under `C[C@@H](Cn1cnnn1)Oc1cc(-c2cnc(Nc3cn(CCNS(C)(=O)=O)nc3C(F)(F)F)nc2)ccc1Cl` [Example 884, (S)-N-(2-(4-((5-(3-((1-(1H-tetrazol-1-yl)propan-2-yl)oxy)-4-chlorophenyl)pyrimidin-2-yl)amino)-3-(trifluoromethyl)-1H-pyrazol-1-yl)ethyl)methanesulfonamide] stands 10 to 100 nM; under `C[C@@H](Cn1cnnn1)Oc1cc(-c2cnc(Nc3cn(C(C)(C)C(N)=O)nc3OCC(F)(F)F)nc2)ccc1Cl` [Example 894, (S)-2-(4-((5-(3-((1-(1H-tetrazol-1-yl)propan-2-yl)oxy)-4-chlorophenyl)pyrimidin-2-yl)amino)-3-(2,2,2-trifluoroethoxy)-1H-pyrazol-1-yl)-2-methylpropanamide], less than 10 nM; under `C[C@@H](Cn1cnnn1)Oc1cc(-c2cnc(Nc3cn(CC4(O)CCN(C5CCOCC5)CC4)nc3OCC(F)(F)F)nc2)ccc1Cl` [Example 909, (S)-4-((4-((5-(3-((1-(1H-tetrazol-1-yl)propan-2-yl)oxy)-4-chlorophenyl)pyrimidin-2-yl)amino)-3-(2,2,2-trifluoroethoxy)-1H-pyrazol-1-yl)methyl)-1-(tetrahydro-2H-pyran-4-yl)piperidin-4-ol], less than 10 nM.

The same assay, now with this note: Table 2; CaMKIIδ binding assay, activity given as class A/B/C.
Take `C[C@@H](Cn1cnnn1)Oc1cc(-c2cnc(Nc3cn(CC(C)(C)N)nc3C(F)(F)F)nc2)ccc1Cl` [Example 861, (S)-5-(3-((1-(1H-tetrazol-1-yl)propan-2-yl)oxy)-4-chlorophenyl)-N-(1-(2-amino-2-methylpropyl)-3-(trifluoromethyl)-1H-pyrazol-4-yl)pyrimidin-2-amine]: the half-inhibitory concentration (IC50) is less than 10 nM.
The same measure, in the same setting: in the case of `C[C@@H](Cn1cnnn1)Oc1cc(-c2cnc(Nc3cn([C@H]4CC[C@H](N5CC(O)(C(F)(F)F)C5)CC4)nc3C(F)(F)F)nc2)ccc1Cl` [Example 857, 1-(trans-4-(4-((5-(3-(((S)-1-(1H-tetrazol-1-yl)propan-2-yl)oxy)-4-chlorophenyl)pyrimidin-2-yl)amino)-3-(trifluoromethyl)-1H-pyrazol-1-yl)cyclohexyl)-3-(trifluoromethyl)azetidin-3-ol] it was less than 10 nM.
The same measure, in the same setting: in the case of `C[C@@H](Cn1cnnn1)Oc1cc(-c2cnc(Nc3cn([C@H]4CC[C@H](N5CCOCC5)CC4)nc3C(F)(F)F)nc2)ccc1F` [Example 808, 5-(3-(((S)-1-(1H-tetrazol-1-yl)propan-2-yl)oxy)-4-fluorophenyl)-N-(1-(trans-4-morpholinocyclohexyl)-3-(trifluoromethyl)-1H-pyrazol-4-yl)pyrimidin-2-amine] it was less than 10 nM.
Still for that read-out and setting: in the case of `CCn1cc(Nc2ncc(-c3ccc(Cl)c(O[C@@H](C)Cn4cnnn4)c3)cn2)c(C(=O)N2CCOCC2)n1` [Example 866, (S)-(4-((5-(3-((1-(1H-tetrazol-1-yl)propan-2-yl)oxy)-4-chlorophenyl)pyrimidin-2-yl)amino)-1-ethyl-1H-pyrazol-3-yl)(morpholino)methanone] it was 10 to 100 nM; in that of `C[C@@H](Cn1cnnn1)Oc1cc(-c2cnc(Nc3cn(CC4(O)CCC4)nc3C(F)(F)F)nc2)ccc1F` [Example 858, (S)-1-((4-((5-(3-((1-(1H-tetrazol-1-yl)propan-2-yl)oxy)-4-fluorophenyl)pyrimidin-2-yl)amino)-3-(trifluoromethyl)-1H-pyrazol-1-yl)methyl)cyclobutan-1-ol], 10 to 100 nM.

The same assay, now with this note: Table 2; activity class for CaMKIIδ.
Consider `Cc1cc(Nc2ncc(-c3ccc(Cl)c(O[C@@H](C)Cn4cnnn4)c3)cn2)n(CC(F)(F)F)n1` [Example 659, (S)-5-(3-((1-(1H-tetrazol-1-yl)propan-2-yl)oxy)-4-chlorophenyl)-N-(3-methyl-1-(2,2,2-trifluoroethyl)-1H-pyrazol-5-yl)pyrimidin-2-amine], for which the IC50 is 10 to 100 nM.
Same read-out and setting: in the case of `C[C@@H](Cn1cnnn1)Oc1cc(-c2cnc(Nc3cn(CC4CCCN4)nc3C(F)(F)F)nc2)ccc1Cl` (stereo partly drawn) [Example 602, 5-(3-(((S)-1-(1H-tetrazol-1-yl)propan-2-yl)oxy)-4-chlorophenyl)-N-(1-(pyrrolidin-2-ylmethyl)-3-(trifluoromethyl)-1H-pyrazol-4-yl)pyrimidin-2-amine] it was less than 10 nM; in that of `C[C@@H](Cn1cnnn1)Oc1cc(-c2cnc(Nc3cn(CCNC(=O)c4ccccc4)nc3C(F)(F)F)nc2)ccc1Cl` [Example 630, (S)-N-(2-(4-((5-(3-((1-(1H-tetrazol-1-yl)propan-2-yl)oxy)-4-chlorophenyl)pyrimidin-2-yl)amino)-3-(trifluoromethyl)-1H-pyrazol-1-yl)ethyl)benzamide], not below 100 nM.

Values taken from US10543212B2, “Substituted amines for treating cardiac diseases” (Cardurion Pharmaceuticals, LLC, priority 2017, dated 2020).
